The values below come from patent US11878975B2, “Substituted indole compounds useful as TLR inhibitors” (BRISTOL-MYERS SQUIBB COMPANY, priority 2017, dated 2024).

Holding throughout (assay type): cell-based
One assay has as its target T1, human TLR7 (Homo sapiens, UniProt Q9NYK1).
T1 construct: host or cells: HEK-Blue cells
T1 sequence (Q9NYK1 27-1049): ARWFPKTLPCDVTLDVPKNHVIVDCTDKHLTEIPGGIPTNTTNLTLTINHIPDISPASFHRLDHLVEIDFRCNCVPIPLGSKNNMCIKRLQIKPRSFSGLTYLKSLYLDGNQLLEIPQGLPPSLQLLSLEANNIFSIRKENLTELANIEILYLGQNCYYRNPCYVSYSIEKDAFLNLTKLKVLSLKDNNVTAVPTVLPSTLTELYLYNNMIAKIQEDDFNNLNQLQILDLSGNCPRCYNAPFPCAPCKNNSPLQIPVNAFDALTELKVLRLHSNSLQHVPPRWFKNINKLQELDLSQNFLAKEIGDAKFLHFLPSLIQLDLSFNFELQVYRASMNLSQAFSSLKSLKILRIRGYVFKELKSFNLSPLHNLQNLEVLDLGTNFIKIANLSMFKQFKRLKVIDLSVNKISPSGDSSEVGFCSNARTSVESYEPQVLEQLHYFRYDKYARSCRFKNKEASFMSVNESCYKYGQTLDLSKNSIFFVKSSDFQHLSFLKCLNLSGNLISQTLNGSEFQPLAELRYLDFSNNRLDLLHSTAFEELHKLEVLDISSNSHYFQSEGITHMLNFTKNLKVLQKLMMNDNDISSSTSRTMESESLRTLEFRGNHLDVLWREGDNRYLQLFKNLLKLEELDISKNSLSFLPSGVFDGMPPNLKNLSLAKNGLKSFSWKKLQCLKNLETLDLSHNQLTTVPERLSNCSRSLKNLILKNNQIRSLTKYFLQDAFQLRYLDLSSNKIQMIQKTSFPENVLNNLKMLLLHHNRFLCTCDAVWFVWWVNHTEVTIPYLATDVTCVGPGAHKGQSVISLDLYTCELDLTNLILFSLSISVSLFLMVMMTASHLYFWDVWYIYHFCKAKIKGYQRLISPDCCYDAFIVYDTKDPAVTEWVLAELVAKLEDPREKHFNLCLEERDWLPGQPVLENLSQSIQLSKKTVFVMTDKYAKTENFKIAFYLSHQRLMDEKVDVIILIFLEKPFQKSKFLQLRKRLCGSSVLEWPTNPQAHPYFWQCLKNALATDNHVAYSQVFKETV
Description: TLR7 inhibition reporter assay (HEK-Blue cells, SEAP reporter, gardiquimod stimulation). The note with it: HEK-Blue cells overexpressing human TLR7, SEAP reporter, gardiquimod 7.5 μM. An outline of the steps:
(§1)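 SEAP readout after 22 h agonist exposure at 37 °C; final agonist levels were 7.5 μM gardiquimod (TLR7), 15.9 μM R848 (TLR8) and 5 nM ODN2006 (TLR9). Inhibitors, spanning 0.05 nM to 50 μM final, were applied 30 min beforehand.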

The target in the next assay is T2, human TLR8 (Homo sapiens, UniProt Q9NR97).
T2 construct: host or cells: HEK-Blue cells
T2 sequence (Q9NR97 27-1041): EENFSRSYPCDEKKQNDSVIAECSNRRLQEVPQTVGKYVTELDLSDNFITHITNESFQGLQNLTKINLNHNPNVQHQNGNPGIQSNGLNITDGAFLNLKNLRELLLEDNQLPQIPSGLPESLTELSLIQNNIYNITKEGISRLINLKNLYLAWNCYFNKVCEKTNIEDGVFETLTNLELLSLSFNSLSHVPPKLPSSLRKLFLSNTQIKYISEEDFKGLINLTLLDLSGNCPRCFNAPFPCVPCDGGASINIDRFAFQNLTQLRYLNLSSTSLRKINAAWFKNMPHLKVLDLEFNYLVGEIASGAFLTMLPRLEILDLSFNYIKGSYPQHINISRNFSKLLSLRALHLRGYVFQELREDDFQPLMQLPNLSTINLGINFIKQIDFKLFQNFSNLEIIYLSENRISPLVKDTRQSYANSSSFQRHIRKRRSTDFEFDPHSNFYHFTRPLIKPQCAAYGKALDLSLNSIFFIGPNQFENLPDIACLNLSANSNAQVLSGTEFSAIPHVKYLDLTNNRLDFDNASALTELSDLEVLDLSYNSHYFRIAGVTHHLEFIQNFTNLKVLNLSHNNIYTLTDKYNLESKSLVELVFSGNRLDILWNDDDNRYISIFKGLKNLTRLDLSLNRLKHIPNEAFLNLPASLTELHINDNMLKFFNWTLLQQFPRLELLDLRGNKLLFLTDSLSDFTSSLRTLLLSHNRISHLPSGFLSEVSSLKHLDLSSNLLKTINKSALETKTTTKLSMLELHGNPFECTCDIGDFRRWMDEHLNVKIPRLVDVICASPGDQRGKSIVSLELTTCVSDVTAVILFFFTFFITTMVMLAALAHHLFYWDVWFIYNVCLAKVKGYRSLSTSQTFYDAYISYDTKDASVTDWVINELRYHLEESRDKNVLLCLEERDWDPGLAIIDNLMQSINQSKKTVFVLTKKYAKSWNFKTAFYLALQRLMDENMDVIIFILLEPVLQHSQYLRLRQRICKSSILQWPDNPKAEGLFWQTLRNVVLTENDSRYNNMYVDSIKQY
Description: TLR8 inhibition reporter assay (HEK-Blue cells, SEAP reporter, R848 stimulation). To be noted: HEK-Blue cells overexpressing human TLR8, SEAP reporter, R848 15.9 μM. An outline of the steps:
as §1

Another assay concerns the target T3, human TLR9 (Homo sapiens, UniProt Q9NR96).
T3 construct: host or cells: HEK-Blue cells
T3 sequence (Q9NR96 26-1032): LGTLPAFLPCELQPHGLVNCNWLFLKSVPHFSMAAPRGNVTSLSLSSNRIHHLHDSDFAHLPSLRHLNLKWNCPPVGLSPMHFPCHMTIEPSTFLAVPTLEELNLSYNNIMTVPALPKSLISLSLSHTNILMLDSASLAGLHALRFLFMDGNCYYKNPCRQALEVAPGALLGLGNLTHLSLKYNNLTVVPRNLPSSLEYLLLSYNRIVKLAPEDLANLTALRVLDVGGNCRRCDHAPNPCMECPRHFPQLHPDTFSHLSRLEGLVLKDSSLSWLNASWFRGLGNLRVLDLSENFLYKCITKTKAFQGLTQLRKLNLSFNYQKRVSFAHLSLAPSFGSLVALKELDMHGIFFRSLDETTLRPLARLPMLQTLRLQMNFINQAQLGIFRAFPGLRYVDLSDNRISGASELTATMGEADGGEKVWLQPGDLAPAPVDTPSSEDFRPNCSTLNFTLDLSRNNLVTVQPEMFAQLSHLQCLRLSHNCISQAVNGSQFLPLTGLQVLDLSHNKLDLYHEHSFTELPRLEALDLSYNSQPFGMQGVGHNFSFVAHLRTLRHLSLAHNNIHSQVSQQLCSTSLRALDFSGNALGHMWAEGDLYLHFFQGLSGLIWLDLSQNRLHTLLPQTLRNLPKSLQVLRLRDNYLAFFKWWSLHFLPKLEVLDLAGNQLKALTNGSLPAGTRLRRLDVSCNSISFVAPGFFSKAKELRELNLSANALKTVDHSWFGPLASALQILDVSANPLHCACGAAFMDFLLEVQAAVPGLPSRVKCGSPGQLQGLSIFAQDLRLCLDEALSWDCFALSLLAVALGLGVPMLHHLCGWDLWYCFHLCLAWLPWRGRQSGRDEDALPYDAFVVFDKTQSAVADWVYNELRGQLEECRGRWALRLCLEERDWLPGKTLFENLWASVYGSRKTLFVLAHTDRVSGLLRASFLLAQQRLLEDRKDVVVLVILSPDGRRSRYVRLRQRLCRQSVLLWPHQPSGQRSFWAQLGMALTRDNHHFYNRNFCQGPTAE
As to the kind of experiment: TLR9 inhibition reporter assay (HEK-Blue cells, SEAP reporter, ODN2006 stimulation). The note with it: HEK-Blue cells overexpressing human TLR9, SEAP reporter, ODN2006 5 nM. The method in brief: as §1

As for `Cc1cc(-c2[nH]c3ccc(C4CN(CC(C)(C)O)CCO4)cc3c2C(C)C)cn2ncnc12` (stereo not drawn) [Example 355, 1-(2-(3-isopropyl-2-(8-methyl-[1,2,4]triazolo[1,5-a]pyridin-6-yl)-1H-indol-5-yl)morpholino)-2-methylpropan-2-ol], the results for the IC50 at human TLR7, on human TLR8 and on human TLR9 were 5 nM, 1.4 nM and 28900 nM, respectively.
With `Cc1cc(-c2[nH]c3ccc(CCN4CCCC4)cc3c2C(C)C)cn(C)c1=O` [Example 405], the results for the half-maximal inhibitory concentration (IC50) on human TLR7, at human TLR8 and on human TLR9 were 35 nM, 8.4 nM and 13700 nM, respectively.
On to `Cc1cc(-c2[nH]c3ccc(CCN4CCS(=O)(=O)CC4)cc3c2C(C)C)cn(C)c1=O` [Example 402], for which the IC50 on human TLR7 is 108 nM; at human TLR8, 74 nM; at human TLR9, more than 50000 nM.
On to `COc1cc(-c2[nH]c3ccc(C4CCC(N5CCC5)CC4)cc3c2C(C)C)cn2ncnc12` (stereo not drawn) [Example 77], for which the figures for the IC50 against human TLR7, against human TLR8 and against human TLR9 were 1 nM, 3.1 nM and 1920 nM, respectively.
As for `CNC(=O)CN1CCCC(c2ccc3[nH]c(-c4cc(OC)c5ncnn5c4)c(C(C)C)c3c2)C1` (stereo not drawn) [Example 223], the results for the IC50 at human TLR7, against human TLR8 and at human TLR9 were 2 nM, 13 nM and 7500 nM, respectively.
For `Cc1c(-c2[nH]c3ccc(C4CCC(NC5CC5)CC4)cc3c2C(C)C)cn2ncnc2c1C` (stereo not drawn) [Example 17], the results for the 50% inhibitory concentration (IC50) on human TLR7, at human TLR8 and at human TLR9 were 0.73 nM, 0.7 nM and 3530 nM, respectively.
For `COc1cc(-c2[nH]c3ccc(C4CNCCO4)cc3c2C(C)C)cn2ncnc12` (stereo not drawn) [Example 284], in that order: 1 nM, 0.85 nM and 1820 nM.
Take `CNC1CCC(c2ccc3[nH]c(-c4cc(OC)c5ncnn5c4)c(C(C)C)c3c2)CC1` (single isomer, unassigned) [Example 146, 4-(3-isopropyl-2-(8-methoxy-[1,2,4]triazolo[1,5-a]pyridin-6-yl)-1H-indol-5-yl)-N-methylcyclohexanamine]: the concentration for half-maximal inhibition (IC50) at human TLR7 worked out at 0.79 nM; on human TLR8 it was 3.7 nM; at human TLR9, 1620 nM.
For `Cc1c(-c2[nH]c3ccc(C4CN(CC(=O)N(C)C)CCO4)cc3c2C(C)C)cn2ncnc2c1C` (stereo not drawn) [Example 312], in that order: 46 nM, 21 nM and more than 50000 nM.
As for `COc1cc(-c2[nH]c3ccc(C4CCC(NC(=O)CN5CCCC5)CC4)cc3c2C(C)C)cn2ncnc12` (stereo not drawn) [Example 133], the IC50 against human TLR7 amounted to 0.28 nM; against human TLR8 it was 0.75 nM; on human TLR9 it was 2020 nM.
Regarding `COc1cc(-c2[nH]c3ccc(C4CNC(C)(C)CO4)cc3c2C(C)C)cn2ncnc12` (stereo not drawn) [Example 368], the concentration for half-maximal inhibition (IC50) came out at 0.45 nM at human TLR7, 1.6 nM on human TLR8 and 2480 nM on human TLR9.
In the same order, the values of `Cc1c(-c2[nH]c3ccc(C4CC5CN(CC(=O)N(C)C)CC5C4)cc3c2C(C)C)cn2cnnc2c1C` (stereo not drawn) [Example 520] are 29 nM, 66 nM and 17700 nM.
For `COc1cc(-c2[nH]c3ccc(C4CC5CN(C6COC6)CC5C4)cc3c2C(C)C)cn2ncnc12` (stereo not drawn) [Example 513], in that order: 0.96 nM, 20 nM and 12500 nM.
Consider `Cc1c(-c2[nH]c3ccc(C4CC(N)C4)cc3c2C(C)C)cn2ncnc2c1C` (stereo not drawn) [Example 542], for which the IC50 came to 3 nM against human TLR7, 1.2 nM on human TLR8 and 5100 nM against human TLR9.
Take `COCCN(C)C1CCC(c2ccc3[nH]c(-c4cn5ncnc5c(C)c4C)c(C(C)C)c3c2)CC1` (single isomer, unassigned) [Example 152, 4-(2-(7,8-dimethyl-[1,2,4]triazolo[1,5-a]pyridin-6-yl)-3-isopropyl-1H-indol-5-yl)-N-(2-methoxyethyl)-N-methylcyclohexanamine]: the half-inhibitory concentration (IC50) stood at 4 nM against human TLR7, 3.4 nM against human TLR8 and 2850 nM on human TLR9.
